Laboratory results reported in publication PMC5688156, “The natural product carolacton inhibits folate-dependent C1 metabolism by targeting FolD/MTHFD” (Nature Communications, 2017).

Assays:
spFolD [1] = molecular target: T1, spFolD (Streptococcus pneumoniae serotype 4, UniProt Q97RI9); test: SPR binding to spFolD; design: species or system S. pneumoniae
T1 construct: His-tag (TEV-cleavable, vector pHis-TEV); made in house; host or cells: E. coli BL21 (DE3)
Procedure: All surface plasmon resonance (SPR) experiments described in this study were performed on a Biacore X100 system. Different FolDs with or without His-tag were coupled on CM5 sensor chips (GE Healthcare) by the amine coupling method using a kit from GE Healthcare Life Sciences (Freiburg, Germany). A pH scouting process was performed before protein immobilization to test the most appropriate buffer and the protein concentration for protein coupling. Finally, 20 μg/mL of ecFolD in 10 mM maleate buffer (pH 6.8), 30 μg/mL of ecFolD Q98H in 10 mM maleate buffer (pH 6.3), 40 μg/mL of ecFolD K54N in 10 mM maleate buffer (pH 5.8), 20 μg/mL of spFolD in 10 mM maleate buffer (pH 6.0) and 15 μg/mL of MTHFD2 (His-tag cleaved) in 10 mM maleate buffer (pH 6.8) were used for coupling. In the protein immobilization procedure, the contact time was calculated based on the pH scouting results to achieve ~3000–5000 relative resonance units (RU). The buffer used in the SPR assays was 1× HBS-P buffer (10 mM HEPES pH 7.4, 150 mM NaCl, 0.05% Tween 20). The 1 mM stock solution of carolacton was prepared in 1× HBS-P buffer and diluted to different concentration ranges by two-fold serial dilution. In the SPR assay, the association time was 180 s and the dissociation time was 600 s. Data analysis was performed using the Biacore evaluation software. […]

ecFolD ΔK54R55 = molecular target: T2, ecFolD ΔK54R55 (Escherichia coli, UniProt P24186, DEL54-55); test: ecFolD ΔK54R55 mutant dehydrogenase (DH) enzyme assay; format: biochemical, E. coli
T2 construct: His-tag (TEV-cleavable, vector pHis-TEV); made in house; host or cells: E. coli BL21 (DE3)
Procedure: (§1) (6R,S)-5,10-Methylene-5,6,7,8-tetrahydrofolic acid ((6R,S)-5,10-CH2-THF) calcium salt and (6R,S)-5,10-Methenyl-5,6,7,8-tetrahydrofolic acid ((6R,S)-5,10-CH=THF) chloride were purchased from Schircks Laboratories (Bauma, Switzerland) and used as substrates for FolD dehydrogenase and cyclohydrolase enzyme assays, respectively. Only the R-isomer, which accounts for 50% of (6R,S)-5,10-CH2-THF and (6R,S)-5,10-CH=THF, respectively, is used by the enzyme. (6R,S)-5,10-CH2-THF was dissolved in N2-spargeled basic buffer (50 mM Tris-HCl (pH 8.0), 100 mM β-mercaptoethanol) as described by Varshney et al.[25]. (6R,S)-5,10-CH=THF was dissolved in DMSO as a 100 mM stock solution.
Because FolD is a bifunctional enzyme, dehydrogenase and cyclohydrolase activities were determined for FolD enzyme kinetics, respectively. The dehydrogenase activity of FolD was assayed for its substrate 5,10-CH2-THF and cofactor NADP^+ (in the case of MTHFD2, NAD^+ was used as the cofactor) based on monitoring the formation of 5,10-CH=THF, while the cyclohydrolase activity of FolD was determined for its substrate 5,10-CH=THF by monitoring the hydrolysis of […]. The enzyme kinetics for the dehydrogenase activity of all FolDs except hsMTHFD1_DC were determined at 30 °C in 50 mM Tris-HCl (pH 7.5), 30 mM β-mercaptoethanol. […]

spFolD [2] = molecular target: T1, spFolD; test: spFolD cyclohydrolase (CYH) enzyme assay; format: biochemical, S. pneumoniae
Procedure: as §1
Because FolD is a bifunctional enzyme, dehydrogenase and cyclohydrolase activities were determined for FolD enzyme kinetics, respectively. The dehydrogenase activity of FolD was assayed for its substrate 5,10-CH2-THF and cofactor NADP^+ (in the case of MTHFD2, NAD^+ was used as the cofactor) based on monitoring the formation of 5,10-CH=THF, while the cyclohydrolase activity of FolD was determined for its substrate 5,10-CH=THF by monitoring the hydrolysis of […]. The enzyme kinetics for the dehydrogenase activity of all FolDs except hsMTHFD1_DC were determined at 30 °C in 50 mM Tris-HCl (pH 7.5), 30 mM β-mercaptoethanol. The hsMTHFD1_DC dehydrogenase activity was measured in 25 mM MOPS (pH 7.3), 30 mM β-mercaptoethanol at 30 °C. […] To monitor the formation of 5,10-CH=THF, the absorbance of the reaction mixture was monitored at 350 nm in micro UV cuvettes (BRAND, Essex, Connecticut, USA). The concentration of 5,10-CH=THF produced in the reaction was determined using an extinction co-efficient of 0.0249 μM^−1 cm^−1. […] The consumption of 5,10-CH=THF was measured by recording the absorbance of the reactions at 355 nm using the TECAN Infinite 200 PRO equipped with a monochromator. […] The inhibition constants (K i) of carolacton on FolD were determined by measuring the apparent K m when adding certain amounts of carolacton to the enzyme reactions. […]

T1 sequence (Q97RI9 whole entry): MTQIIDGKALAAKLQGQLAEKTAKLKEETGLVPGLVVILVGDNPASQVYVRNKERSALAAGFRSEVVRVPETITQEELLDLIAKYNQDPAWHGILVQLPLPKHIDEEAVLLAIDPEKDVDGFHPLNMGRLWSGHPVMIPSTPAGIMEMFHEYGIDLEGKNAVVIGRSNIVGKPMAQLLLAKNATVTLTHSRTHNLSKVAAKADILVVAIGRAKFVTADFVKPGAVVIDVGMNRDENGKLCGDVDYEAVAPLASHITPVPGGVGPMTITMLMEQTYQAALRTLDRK

CO[C@H](CC(=O)O)[C@@H](C)C(=O)[C@H](C)/C=C(\C)[C@H]1OC(=O)[C@H](O)[C@H](O)/C=C/[C@H](C)CCC[C@@H]1C [carolacton]
Kd (spFolD [1]): 27 nM
koff (spFolD [1]): 0.0316 s⁻¹
sensitivity of residual DH activity to carolacton (ecFolD ΔK54R55): completely insensitive
IC50 (spFolD [2]; 5 nM enzyme, read-out: IC50, carolacton inhibition on CYH activity): 38.1 nM
IC80 (spFolD [2]; 5 nM enzyme, read-out: IC80, carolacton inhibition on CYH activity): 101 nM
Ki (spFolD [2]; vs 5,10-CH=THF, read-out: Ki (5,10-CH=THF), carolacton inhibition on CYH activity): 38.1 nM
